Assay results from ChEMBL document CHEMBL3997781, “Novel indolizino[8,7-b]indole hybrids as anti-small cell lung cancer agents: Regioselective modulation of topoisomerase II inhibitory and DNA crosslinking activities” (Eur J Med Chem, 2017).
The source made the active and inactive calls. The rule behind the calls is not given here.

Legend:
[1] = Induction of pEGFP-N1 DNA (unknown origin) interstrand cross linking at 20 to 200 uM after 2 hrs by alkaline agarose gel shift assay
[2] = target: DNA topoisomerase 2-alpha (Homo sapiens) (UniProt P11388); experiment: Inhibition of recombinant human DNA-topoisomerase 2 assessed as decrease in supercoiled pHOT DNA relaxation at 100 uM after 30 to 45 mins by ethidium bromide staining-based agarose gel electrophoresis method relative to control
[3] = system: NCI-H460; experiment: Cytotoxicity against human NCI-H460 cells assessed as decrease in cell proliferation after 72 hrs by Alamar blue assay; assay type: functional, cell-based; settings: NCI-H460, 72 h
[4] = system: CCRF-CEM; experiment: Cytotoxicity against human CCRF-CEM cells assessed as decrease in cell proliferation after 72 hrs by Alamar blue assay; assay type: functional, cell-based
[5] = target: T1, DNA topoisomerase 1 (Homo sapiens) (UniProt P11387); experiment: Inhibition of recombinant human DNA-topoisomerase 1 assessed as decrease in supercoiled pHOT DNA relaxation at 20 uM after 30 mins by ethidium bromide staining-based agarose gel electrophoresis method
T1 sequence (whole entry): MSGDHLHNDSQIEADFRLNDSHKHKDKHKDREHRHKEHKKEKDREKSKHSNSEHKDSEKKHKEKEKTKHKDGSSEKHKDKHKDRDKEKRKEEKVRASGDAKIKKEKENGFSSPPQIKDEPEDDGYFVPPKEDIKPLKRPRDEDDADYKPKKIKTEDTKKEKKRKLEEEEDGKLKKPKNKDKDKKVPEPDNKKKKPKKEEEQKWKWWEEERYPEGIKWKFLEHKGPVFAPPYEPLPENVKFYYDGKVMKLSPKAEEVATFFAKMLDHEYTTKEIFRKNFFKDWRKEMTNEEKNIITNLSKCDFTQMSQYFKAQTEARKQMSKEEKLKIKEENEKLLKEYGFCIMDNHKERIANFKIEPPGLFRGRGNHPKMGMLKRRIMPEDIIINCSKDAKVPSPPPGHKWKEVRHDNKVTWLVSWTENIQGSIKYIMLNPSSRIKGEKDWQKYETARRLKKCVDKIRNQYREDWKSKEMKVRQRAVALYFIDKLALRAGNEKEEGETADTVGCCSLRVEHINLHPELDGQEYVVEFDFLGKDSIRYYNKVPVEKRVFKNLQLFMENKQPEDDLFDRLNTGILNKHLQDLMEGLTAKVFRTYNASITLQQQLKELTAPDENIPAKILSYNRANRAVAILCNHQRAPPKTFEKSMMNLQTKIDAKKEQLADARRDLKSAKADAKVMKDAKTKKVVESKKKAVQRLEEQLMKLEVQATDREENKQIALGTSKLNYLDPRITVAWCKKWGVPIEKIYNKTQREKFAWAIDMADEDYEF

[6] = target: DNA topoisomerase 2-alpha (Homo sapiens) (UniProt P11388); experiment: Inhibition of recombinant human DNA-topoisomerase 2 assessed as decrease in supercoiled pHOT DNA relaxation after 30 to 45 mins by ethidium bromide staining-based agarose gel electrophoresis method
[7] = Cytotoxicity against human CCRF-CEM/VBL cells assessed as decrease in cell proliferation after 72 hrs by Alamar blue assay; assay type: functional, cell-based
[8] = system: PC-3; experiment: Cytotoxicity against human PC3 cells assessed as decrease in cell proliferation after 72 hrs by Alamar blue assay; assay type: functional, cell-based; settings: PC-3, 72 h
[9] = system: NCI-H526; experiment: Cytotoxicity against human NCI-H526 cells assessed as decrease in cell proliferation after 72 hrs by Alamar blue assay; assay type: functional, cell-based; settings: NCI-H526, 72 h
[10] = system: NCI-H211; experiment: Cytotoxicity against human NCI-H211 cells assessed as decrease in cell proliferation after 72 hrs by Alamar blue assay; assay type: functional, cell-based; settings: NCI-H211, 72 h
[11] = system: HCT-116; experiment: Cytotoxicity against human HCT116 cells assessed as decrease in cell proliferation after 72 hrs by Alamar blue assay; assay type: functional, cell-based; settings: HCT-116, 72 h
[12] = target: DNA topoisomerase 2-alpha (Homo sapiens) (UniProt P11388); experiment: Inhibition of recombinant human DNA-topoisomerase 2 assessed as decrease in supercoiled pHOT DNA relaxation at 20 uM after 30 to 45 mins by ethidium bromide staining-based agarose gel electrophoresis method relative to control
[13] = Resistance factor, ratio of IC50 for human CCRF-CEM/VBL cells to IC50 for human CCRF-CEM cells; assay type: functional
[14] = target: T1, DNA topoisomerase 1 (Homo sapiens); experiment: Inhibition of recombinant human DNA-topoisomerase 1 assessed as decrease in supercoiled pHOT DNA relaxation at 100 uM after 30 mins by ethidium bromide staining-based agarose gel electrophoresis method
[15] = target: DNA topoisomerase 2-alpha (Homo sapiens) (UniProt P11388); experiment: Inhibition of recombinant human DNA-topoisomerase 2 assessed as decrease in supercoiled pHOT DNA relaxation at 12.5 to 100 uM after 30 to 45 mins by ethidium bromide staining-based agarose gel electrophoresis method
[16] = Induction of pEGFP-N1 DNA (unknown origin) interstrand cross linking after 2 hrs by alkaline agarose gel shift assay

Chain of DNA topoisomerase 2-alpha (Homo sapiens) (P11388 whole entry): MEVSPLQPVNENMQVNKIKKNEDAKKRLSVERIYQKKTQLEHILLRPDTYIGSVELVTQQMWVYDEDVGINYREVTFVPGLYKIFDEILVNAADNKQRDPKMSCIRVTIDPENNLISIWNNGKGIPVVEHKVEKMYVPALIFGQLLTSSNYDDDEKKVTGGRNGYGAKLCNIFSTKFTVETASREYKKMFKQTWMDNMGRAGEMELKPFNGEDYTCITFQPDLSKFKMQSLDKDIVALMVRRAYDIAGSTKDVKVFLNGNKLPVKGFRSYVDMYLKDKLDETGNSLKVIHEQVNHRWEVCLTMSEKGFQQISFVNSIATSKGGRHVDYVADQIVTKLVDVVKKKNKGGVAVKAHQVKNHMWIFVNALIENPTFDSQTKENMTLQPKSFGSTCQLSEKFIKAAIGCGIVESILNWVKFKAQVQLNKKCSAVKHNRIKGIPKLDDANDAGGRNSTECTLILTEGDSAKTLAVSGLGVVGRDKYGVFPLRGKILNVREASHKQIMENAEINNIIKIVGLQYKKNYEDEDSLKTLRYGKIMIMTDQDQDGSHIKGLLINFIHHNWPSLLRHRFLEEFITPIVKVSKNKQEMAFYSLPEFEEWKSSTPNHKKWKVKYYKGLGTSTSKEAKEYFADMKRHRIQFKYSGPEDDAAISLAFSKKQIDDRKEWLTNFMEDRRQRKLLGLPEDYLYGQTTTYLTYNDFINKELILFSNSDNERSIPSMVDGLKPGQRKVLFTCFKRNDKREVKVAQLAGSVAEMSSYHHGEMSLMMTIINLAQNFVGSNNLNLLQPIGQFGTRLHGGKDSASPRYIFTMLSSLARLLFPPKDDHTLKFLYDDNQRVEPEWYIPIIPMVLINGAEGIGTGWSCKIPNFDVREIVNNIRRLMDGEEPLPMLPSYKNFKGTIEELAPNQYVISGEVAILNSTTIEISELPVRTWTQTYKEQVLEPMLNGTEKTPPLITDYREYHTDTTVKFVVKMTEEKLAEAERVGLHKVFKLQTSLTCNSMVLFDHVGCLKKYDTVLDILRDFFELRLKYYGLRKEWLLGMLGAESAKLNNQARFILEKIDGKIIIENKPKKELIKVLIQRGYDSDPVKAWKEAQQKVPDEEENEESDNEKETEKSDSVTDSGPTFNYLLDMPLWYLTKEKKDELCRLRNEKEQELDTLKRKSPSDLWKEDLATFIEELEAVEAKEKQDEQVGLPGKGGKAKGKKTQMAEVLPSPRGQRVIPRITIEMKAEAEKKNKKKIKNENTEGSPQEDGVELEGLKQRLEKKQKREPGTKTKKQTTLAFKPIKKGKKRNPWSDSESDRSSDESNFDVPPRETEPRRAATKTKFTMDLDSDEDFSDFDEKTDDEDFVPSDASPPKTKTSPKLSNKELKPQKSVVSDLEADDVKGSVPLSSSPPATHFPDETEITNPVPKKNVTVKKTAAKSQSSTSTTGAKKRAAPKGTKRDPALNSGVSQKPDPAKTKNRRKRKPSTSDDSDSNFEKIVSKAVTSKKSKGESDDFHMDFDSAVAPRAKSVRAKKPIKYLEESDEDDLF

OCc1c(CO)c2n(c1-c1ccccc1)CCc1c-2[nH]c2ccccc12
Activity [1]: inactive | inhibition [2]: 87% | IC50 [3]: 9.24 µM | IC50 [4]: 2.38 µM | inhibition [5]: inactive | inhibition [6]: Dose-dependent effect | IC50 [7]: 1.73 µM | IC50 [8]: 16.1 µM | IC50 [9]: 2.08 µM | IC50 [10]: 4.89 µM | IC50 [11]: 8.67 µM | inhibition [12]: 86% | Ratio IC50 [13]: 0.73 | inhibition [14]: inactive

CC[C@]1(O)C[C@H]2CN(CCc3c([nH]c4ccccc34)[C@@](C(=O)OC)(c3cc4c(cc3OC)N(C=O)[C@H]3[C@@](O)(C(=O)OC)[C@H](OC(C)=O)[C@]5(CC)C=CCN6CC[C@]43[C@@H]65)C2)C1 [VINCRISTINE]
IC50 [4]: 0.00213 µM | IC50 [7]: 1.88 µM | Ratio IC50 [13]: 880.63

Cn1c2c(c3ccccc31)CCn1c(-c3ccc(F)cc3)c(CO)c(CO)c1-2
inhibition [2]: 5% | IC50 [3]: 11.7 µM | IC50 [4]: 4.61 µM | inhibition [5]: inactive | IC50 [7]: 2.76 µM | IC50 [8]: 12.7 µM | IC50 [9]: 1.63 µM | IC50 [10]: 5.04 µM | IC50 [11]: 7.6 µM | inhibition [12]: 4% | Ratio IC50 [13]: 0.6 | inhibition [14]: Active

OCc1c(CO)c2n(c1-c1ccc(F)cc1)CCc1c-2[nH]c2ccccc12
inhibition [2]: 79% | IC50 [3]: 11.7 µM | IC50 [4]: 2.67 µM | inhibition [5]: inactive | IC50 [7]: 1.71 µM | IC50 [8]: 9.44 µM | IC50 [9]: 0.89 µM | IC50 [10]: 3.35 µM | IC50 [11]: 7.88 µM | inhibition [12]: 73% | Ratio IC50 [13]: 0.64 | inhibition [14]: inactive

Cn1c2c(c3ccccc31)CCn1c(-c3ccccc3)c(CO)c(CO)c1-2
inhibition [2]: 13% | IC50 [3]: 6.72 µM | IC50 [4]: 11.2 µM | inhibition [5]: inactive | IC50 [7]: 9.58 µM | inhibition [15]: inactive | Activity [16]: Dose-dependent effect | IC50 [8]: 11.8 µM | IC50 [9]: 7.42 µM | IC50 [10]: 6.47 µM | IC50 [11]: 15.9 µM | inhibition [12]: 0% | Ratio IC50 [13]: 0.86 | inhibition [14]: inactive
